Assay type in all cases: cell-based
Assay [1] deals with fibroblastes dermiques humains normaux. The assay is described as follows: Synthesis of sulfated glycosaminoglycans (radioactive label incorporation) in fibroblast cultures. The settings on record: fibroblasts, second experiment, n=2; for activity at 100 µM / activity at 1000 µM: Fibroblast, control = 100, read-out: % (synthèse des glycosaminoglycanes par rapport au témoin).
In assay [2] the test system is kératinocytes. The assay is described as follows: Synthesis of sulfated glycosaminoglycans (radioactive label incorporation) in keratinocyte cultures. To be noted: keratinocytes, second experiment, n=2.
For assay [3], the system named is kératinocytes. The description is as above. To be noted: keratinocytes, n=3. The source says:
(§1) Etude de l'effet de dérivés C-glycosides sur la synthèse des glycosaminoglycannes sulfatés sur fibroblastes et sur kératinocytes : • L'étude est faite par mesure de l'incorporation de glucosamine radioactive dans la matrice néosynthétisée par des cultures de fibroblastes dermiques humains normaux ou par des kératinocytes. L'incorporation de glucosamine radioactive indique une néosynthèse spécifique de glycosaminoglycannes via une incorporation de la forme acétylée de cette glucosamine.
Les cultures de kératinocytes sont effectuées en milieu Keratinocyte-SFM vendu par la société Gibco , en présence d'EGF (Epidermal Growth Factor) (0,25 ng/ml), d'extrait pituitaire (25 µg/ml) et de gentamycine (25 µg/ml).
(§2) Les fibroblastes et les kératinocytes ont été cultivés en plaques de 96 puits. A confluence, le milieu de culture a été remplacé par du milieu de culture adéquat contenant ou non (témoin) le composé à tester ou la référence, puis les cellules ont été incubées pendant 48 heures. Le marqueur radioactif 35 S-sulfate a été ajouté (40 µCi final) et les cellules ont été incubées pendant 24 heures supplémentaires. Toutes les conditions ont été réalisées 3 fois.
(§3) Les glycosaminoglycanes de la matrice extracellulaire ont été extraits avec un volume tampon chaotropique (Tris/HCl 50 mM, guanidine 4 M, EDTA 5 mM, pH 8,0). Les GAGs sulfatés ont été purifiés par chromatographie d'échanges d'ions : absorption des molécules anioniques sur billes de Q-Sépahrose dans des conditions de forte stringence, désorption des molécules peu et moyennement anioniques avec uns solution urée 6 M NaCl […], puis lavages. La radioactivité incorporée dans les molécules […] restées sur le support (GAGs majoritairement) a été mesurée par scintillation liquide. Les résultats sont évalués par apport à un témoin constitué par des cellules n'ayant pas été traitées avec un composé de formule (I). Un témoin positif (TGFβ à 10 ng/ml) connu pour stimuler la synthèse des GAGs est introduit dans le test effectéu sur fibroblastes comme référence positive. Un témoin positif (CaCl2 à 1,4 mM) connu pour stimuler la synthèse des GAGs est introduit dans le test effectué sur kératinocytes comme référence positive.
(§4) Les résultats sont exprimés en pourcentage de variation de la synthèse des glycosaminoglycanes par rapport au témoin.
(§5) On a effectué 3 essais pour le composé testé.
(§6) Les comparaisons des résultats obtenus pour un composé testé ont été réalisés à l'aide du test de Student.
(§7) L'écart type de la moyenne (esm) a été calculé selon la relation suivante : esm = écart type/((n))^(1/2) [formula] • n étant le nombre d'essais effectués.
(§8) Les valeurs mesurées sont données en coups par minute (cpm) • n : nombre d'essais effectués • p : intervalle de confiance • esm : écart type de la moyenne

For assay [4], the system named is fibroblastes dermiques humains normaux. The assay is described as follows: Synthesis of sulfated glycosaminoglycans (radioactive label incorporation) in fibroblast cultures. The settings on record: for augmenter la synthèse des GAGs sulfatés: summary in words of the results on fibroblasts and keratinocytes.
Text: as §1
Les cultures de fibroblastes sont effectuées selon les méthodes classiques de culture cellulaire, à savoir en milieu DMEM vendu par la société Gibco, en présence de L-glutamine (2 mM), de pénicilline (50 Ul/ml) et de 10% de sérum de veau foetal (Gibco).
as §2, §3, §4, §5, §6, §7, §8

Where [5] appears, read: Keratinocyte, 0,1 mM, control = 100, read-out: % (synthèse des glycosaminoglycanes par rapport au témoin).
Setting [6] is: Keratinocyte, 1 mM, control = 100, read-out: % (synthèse des glycosaminoglycanes par rapport au témoin).

For the molecule `CC(N)C[C@@H]1OC[C@@H](O)[C@H](O)[C@H]1O` (stereo partly drawn) [1-[2-amino-propyl]-C-β-D-xylopyranose], the activity at 100 µM in assay [1] (0,1 mM) was determined as 91%; with kératinocytes [2] (setting [5]) it was 113%. Moreover, the activity at 1000 µM in assay [1] (1 mM) stood at 139%; in the assay on kératinocytes [2] (setting [6]), 225%. In addition, the Valeur moyenne turned out to be 2301 cpm in assay [1] (0,1 mM), 3507 cpm in assay [1] (1 mM), 14465 cpm in the assay on kératinocytes [2] (0,1 mM) and 28870 cpm with kératinocytes [2] (1 mM).
For `CNC(C)C[C@@H]1OC[C@@H](O)[C@H](O)[C@H]1O` (stereo partly drawn) [1-[2-(méthylamino)-propyl]-C-β-D-xylopyranose], the activity at 100 µM in assay [1] (0,1 mM) came out at 102%; in the assay with kératinocytes [2] (setting [5]), 93%. Further, the activity at 1000 µM worked out at 106% in assay [1] (1 mM) and 139% in the assay with kératinocytes [2] (setting [6]). The Valeur moyenne in assay [1] (0,1 mM) was 2569 cpm; in assay [1] (1 mM) it was 2659 cpm; with kératinocytes [2] (0,1 mM), 11922 cpm; in the assay with kératinocytes [2] (1 mM), 17916 cpm.
Take `[Ca+2].[Cl-].[Cl-]` [CaCl2, reference compound]: the “% (synthèse des glycosaminoglycanes par rapport au témoin)” value in the assay on kératinocytes [3] (positive control CaCl2 at 1,4 mM, control = 100, 1400 µM) came out at 117%. Moreover, in the assay on kératinocytes [3] (positive control CaCl2 at 1,4 mM), the Valeur moyenne is given as 5273 cpm.
Turning to `CC(C[C@@H]1OC[C@@H](O)[C@H](O)[C@H]1O)NCCCO` (stereo partly drawn) [1-[2-(3-hydroxy-propylamino)-propyl]-C-β-D-xylopyranose], the activity at 100 µM stood at 113% in assay [1] (0,1 mM) and 99% with kératinocytes [2] (setting [5]). In addition, the activity at 1000 µM in assay [1] (1 mM) is 121%; in the assay with kératinocytes [2] (setting [6]), 145%. The Valeur moyenne in assay [1] (0,1 mM) worked out at 2856 cpm; in assay [1] (1 mM), 3039 cpm; with kératinocytes [2] (0,1 mM), 12660 cpm; with kératinocytes [2] (1 mM), 18691 cpm.
Consider `CCOC(=O)C(Cc1ccccc1)NC(C)CC1OCC(O)C(O)C1O` [Composé de l'exemple 5, chlorhydratede l'ester éthyliquede l'acide 2R-[1-méthyl 2-(C-β-D-xylopyranoside) éthyl]-amino 3-phényl propanoïque], for which, in assay [4] (Fibroblast, fibroblasts, 0,37 mM, control = 100, n=3, read-out: % (synthèse des glycosaminoglycanes par rapport au témoin)), the activity at 370 µM stood at 616%. Moreover, the activity at 1110 µM in assay [4] (Fibroblast, fibroblasts, 1,11 mM, control = 100, n=3, read-out: % (synthèse des glycosaminoglycanes par rapport au témoin)) came out at 605%. Moreover, the Valeur moyenne worked out at 14373 cpm in assay [4] (fibroblasts, 0,37 mM, n=3); 14111 cpm in assay [4] (fibroblasts, 1,11 mM, n=3); 21975 cpm with kératinocytes [3] (66 µM); 29007 cpm in the assay with kératinocytes [3] (200 µM). Also, the “augmenter la synthèse des GAGs sulfatés” value in assay [4] is “très efficaces”. In the assay with kératinocytes [3] (Keratinocyte, 66 µM, control = 100, read-out: % (synthèse des glycosaminoglycanes par rapport au témoin)), the activity at 66 µM was 438%. For the same molecule, the activity at 200 µM with kératinocytes [3] (Keratinocyte, 200 µM, control = 100, read-out: % (synthèse des glycosaminoglycanes par rapport au témoin)) was 570%.
On to `CCCCCCNC(C)C[C@@H]1OC[C@@H](O)[C@H](O)[C@H]1O` (some centres unmarked) [Composé de l'exemple 10], for which the “augmenter la synthèse des GAGs sulfatés” value in assay [4] is “très efficaces”. Further, the activity at 100 µM in assay [1] (0,1 mM) was 553%; in the assay with kératinocytes [2] (setting [5]), 427%. Moreover, the results for the activity at 1000 µM (in assay [1] (1 mM); with kératinocytes [2] (setting [6])) were 595% and 255%, respectively. The Valeur moyenne in assay [1] (0,1 mM) worked out at 13925 cpm; in assay [1] (1 mM) it was 14992 cpm; in the assay on kératinocytes [2] (0,1 mM), 54897 cpm; with kératinocytes [2] (1 mM) it was 32733 cpm.
Turning to `CCCNC(C)C[C@@H]1OC[C@@H](O)[C@H](O)[C@H]1O` (some centres unmarked) [Composé de l'exemple 11], the “augmenter la synthèse des GAGs sulfatés” value in assay [4] is reported as “très efficaces”. Besides, the activity at 100 µM in assay [1] (0,1 mM) was 127%. For the same molecule, the activity at 1000 µM in assay [1] (1 mM) was 441%. Further, the Valeur moyenne in assay [1] (0,1 mM) is reported as 3197 cpm; in assay [1] (1 mM), 11109 cpm; in the assay on kératinocytes [2] (0,1 µM) it was 14408 cpm; with kératinocytes [2] (1 µM), 45124 cpm. Further, the activity at 0.1 µM in the assay with kératinocytes [2] (Keratinocyte, 0,1 µM, control = 100, read-out: % (synthèse des glycosaminoglycanes par rapport au témoin)) was 112%. Also, the activity at 1 µM in the assay with kératinocytes [2] (Keratinocyte, 1 µM, control = 100, read-out: % (synthèse des glycosaminoglycanes par rapport au témoin)) is 351%.
